From patent US10695337B2, “Piperidin-4-yl azetidine derivatives as JAK1 inhibitors” (Incyte Corporation, priority 2010, dated 2020)

Biological target: human JAK1 (a.a. 837-1142)
Assay: In vitro JAK kinase assay (HTRF, phosphorylation of a biotinylated peptide), JAK1
Format: biochemical
Settings: measured at 1 mM ATP; JAK2 IC50 / JAK1 IC50
Experimental: Compounds herein were tested for inhibitory activity of JAK targets according to the following in vitro assay described in Park et al., Analytical Biochemistry 1999, 269, 94-104. The catalytic domains of human JAK1 (a.a. 837-1142), Jak2 (a.a. 828-1132) and Jak3 (a.a. 781-1124) with an N-terminal His tag were expressed using baculovirus in insect cells and purified. The catalytic activity of JAK1, JAK2 or JAK3 was assayed by measuring the phosphorylation of a biotinylated peptide. The phosphorylated peptide was detected by homogenous time resolved fluorescence (HTRF). […] Reactions were carried out at room temperature for 1 hr and then stopped with 20 μL 45 mM EDTA, 300 nM SA-APC, 6 nM Eu-Py20 in assay buffer (Perkin Elmer, Boston, Mass.). Binding to the Europium labeled antibody took place for 40 minutes and HTRF signal was measured on a Fusion plate reader (Perkin Elmer, Boston, Mass.).

Compound | IC50 Ratio JAK2/JAK1
CC1CC(N2CC(CC#N)(n3cc(-c4ncnc5[nH]ccc45)cn3)C2)CCN1Cc1c(F)cccc1Cl (single isomer, unassigned) [Example 244, {1-[1-(2-chloro-6-fluorobenzyl)-2-methylpiperidin-4-yl]-3-[4-(7H-pyrrolo[2,3-d]pyrimidin-4-yl)-1H-pyrazol-1-yl]azetidin-3-yl}acetonitrile] | 1.8
N#CCC1(n2cc(-c3ncnc4[nH]ccc34)cn2)CN(C2CCN(C(=O)c3cc(F)cc(F)c3)CC2)C1 [Example 3, {1-[1-(3,5-difluorobenzoyl)piperidin-4-yl]-3-[4-(7H-pyrrolo[2,3-d]pyrimidin-4-yl)-1H-pyrazol-1-yl]azetidin-3-yl}acetonitrile] | 11.0
COc1ccc(C(=O)N2CCC(N3CC(CC#N)(n4cc(-c5ncnc6[nH]ccc56)cn4)C3)CC2)cc1F [Example 5, {1-[1-(3-fluoro-4-methoxybenzoyl)piperidin-4-yl]-3-[4-(7H-pyrrolo[2,3-d]pyrimidin-4-yl)-1H-pyrazol-1-yl]azetidin-3-yl}acetonitrile] | 12.0
N#CCC1(n2cc(-c3ncnc4[nH]ccc34)cn2)CN(C2CCN(C(=O)C3CCCCC3)CC2)C1 [Example 8, {1-[1-(cyclohexylcarbonyl)piperidin-4-yl]-3-[4-(7H-pyrrolo[2,3-d]pyrimidin-4-yl)-1H-pyrazol-1-yl]azetidin-3-yl}acetonitrile] | 11.0
N#CCC1(n2cc(-c3ncnc4[nH]ccc34)cn2)CN(C2CCN(C(=O)c3ccccc3)CC2)C1 [Example 9, {1-(1-benzoylpiperidin-4-yl)-3-[4-(7H-pyrrolo[2,3-d]pyrimidin-4-yl)-1H-pyrazol-1-yl]azetidin-3-yl}acetonitrile] | 3.2
N#CCC1(n2cc(-c3ncnc4[nH]ccc34)cn2)CN(C2CCN(C(=O)c3ccccc3C#N)CC2)C1 [Example 10, 2-[(4-{3-(cyanomethyl)-3-[4-(7H-pyrrolo[2,3-d]pyrimidin-4-yl)-1H-pyrazol-1-yl]azetidin-1-yl}piperidin-1-yl)carbonyl]benzonitrile] | 4.4
N#CCC1(n2cc(-c3ncnc4[nH]ccc34)cn2)CN(C2CCN(C(=O)c3cccc(C#N)c3)CC2)C1 [Example 11, 3-[(4-{3-(cyanomethyl)-3-[4-(7H-pyrrolo[2,3-d]pyrimidin-4-yl)-1H-pyrazol-1-yl]azetidin-1-yl}piperidin-1-yl)carbonyl]benzonitrile] | 7.2
N#CCC1(n2cc(-c3ncnc4[nH]ccc34)cn2)CN(C2CCN(C(=O)c3ccc(C#N)cc3)CC2)C1 [Example 12, 4-[(4-{3-(cyanomethyl)-3-[4-(7H-pyrrolo[2,3-d]pyrimidin-4-yl)-1H-pyrazol-1-yl]azetidin-1-yl}piperidin-1-yl)carbonyl]benzonitrile] | 5.2
N#CCC1(n2cc(-c3ncnc4[nH]ccc34)cn2)CN(C2CCN(C(=O)c3cccc(Cl)n3)CC2)C1 [Example 13, {1-{1-[(6-chloropyridin-2-yl)carbonyl]piperidin-4-yl}-3-[4-(7H-pyrrolo[2,3-d]pyrimidin-4-yl)-1H-pyrazol-1-yl]azetidin-3-yl}acetonitrile] | 5.3
N#CCC1(n2cc(-c3ncnc4[nH]ccc34)cn2)CN(C2CCN(C(=O)c3cnccn3)CC2)C1 [Example 14, {1-[1-(pyrazin-2-lcarbonyl)piperidin-4-yl]-3-[4-(7H-pyrrolo[2,3-d]pyrimidin-4-yl)-1H-pyrazol-1-yl]azetidin-3-l}acetonitrile] | 3.2
N#CCC1(n2cc(-c3ncnc4[nH]ccc34)cn2)CN(C2CCN(C(=O)c3ccsc3)CC2)C1 [Example 15, {3-[4-(7H-pyrrolo[2,3-d]pyrimidin-4-yl)-1H-pyrazol-1-yl]-1-[1-(3-thienylcarbonyl)piperidin-4-yl]azetidin-3-yl}acetonitrile] | 5.3
N#CCC1(n2cc(-c3ncnc4[nH]ccc34)cn2)CN(C2CCN(C(=O)c3ncco3)CC2)C1 [Example 16, {1-[1-(1,3-oxazol-2-ylcarbonyl)piperidin-4-yl]-3-[4-(7H-pyrrolo[2,3-d]pyrimidin-4-yl)-1H-pyrazol-1-yl]azetidin-3-yl}acetonitrile] | 2.5
N#CCC1(n2cc(-c3ncnc4[nH]ccc34)cn2)CN(C2CCN(C(=O)c3cccc(Br)c3)CC2)C1 [Example 20, {1-[1-(3-bromobenzoyl)piperidin-4-yl]-3-[4-(7H-pyrrolo[2,3-d]pyrimidin-4-yl)-1H-pyrazol-1-yl]azetidin-3-yl}acetonitrile] | 4.2
N#CCC1(n2cc(-c3ncnc4[nH]ccc34)cn2)CN(C2CCN(C(=O)c3cccc(OC(F)(F)F)c3)CC2)C1 [Example 21, (3-[4-(7H-pyrrolo[2,3-d]pyrimidin-4-yl)-1H-pyrazol-1-yl]-1-{1-[3-(trifluoromethoxy)benzoyl]piperidin-4-yl}azetidin-3-yl)acetonitrile] | 3.2
N#CCC1(n2cc(-c3ncnc4[nH]ccc34)cn2)CN(C2CCN(C(=O)c3cccc(C(F)(F)F)c3)CC2)C1 [Example 22, (3-[4-(7H-pyrrolo[2,3-d]pyrimidin-4-yl)-1H-pyrazol-1-yl]-1-{1-[3-(trifluoromethyl)benzoyl]piperidin-4-yl}azetidin-3-yl)acetonitrile] | 3.2
N#CCC1(n2cc(-c3ncnc4[nH]ccc34)cn2)CN(C2CCN(C(=O)c3cc(F)cc(C(F)(F)F)c3)CC2)C1 [Example 23, {1-{1-[3-fluoro-5-(trifluoromethyl)benzoyl]piperidin-4-yl}-3-[4-(7H-pyrrolo[2,3-d]pyrimidin-4-yl)-1H-pyrazol-1-yl]azetidin-3-yl}acetonitrile] | 6.7
N#CCC1(n2cc(-c3ncnc4[nH]ccc34)cn2)CN(C2CCN(C(=O)c3cc(Cl)cc(Cl)c3)CC2)C1 [Example 24, {1-[1-(3,5-dichlorobenzoyl)piperidin-4-yl]-3-[4-(7H-pyrrolo[2,3-d]pyrimidin-4-yl)-1H-pyrazol-1-yl]azetidin-3-yl}acetonitrile] | 6.6
N#CCC1(n2cc(-c3ncnc4[nH]ccc34)cn2)CN(C2CCN(C(=O)c3cccc(F)c3)CC2)C1 [Example 25, {1-[1-(3-fluorobenzoyl)piperidin-4-yl]-3-[4-(7H-pyrrolo[2,3-d]pyrimidin-4-yl)-1H-pyrazol-1-yl]azetidin-3-yl}acetonitrile] | 5.8
COc1cc(C(=O)N2CCC(N3CC(CC#N)(n4cc(-c5ncnc6[nH]ccc56)cn4)C3)CC2)ccc1F [Example 26, {1-[1-(4-fluoro-3-methoxybenzoyl)piperidin-4-yl]-3-[4-(7H-pyrrolo[2,3-d]pyrimidin-4-yl)-1H-pyrazol-1-yl]azetidin-3-yl}acetonitrile] | 3.3
COc1ccc(F)c(C(=O)N2CCC(N3CC(CC#N)(n4cc(-c5ncnc6[nH]ccc56)cn4)C3)CC2)c1 [Example 27, {1-[1-(2-fluoro-5-methoxybenzoyl)piperidin-4-yl]-3-[4-(7H-pyrrolo[2,3-d]pyrimidin-4-yl)-1H-pyrazol-1-yl]azetidin-3-yl}acetonitrile] | 5.1
N#CCC1(n2cc(-c3ncnc4[nH]ccc34)cn2)CN(C2CCN(C(=O)c3cc(F)cc(Cl)c3)CC2)C1 [Example 28, {1-[1-(3-chloro-5-fluorobenzoyl)piperidin-4-yl]-3-[4-(7H-pyrrolo[2,3-d]pyrimidin-4-yl)-1H-pyrazol-1-yl]azetidin-3-yl}acetonitrile] | 8.5
